The values that follow come from patent publication US20250387481A1, “PRE-TREATED T CELLS FOR USE AS A MEDICAMENT” (STICHTING HET NEDERLANDS KANKER INSTITUUT-ANTONI VAN …, priority 2022, published 2025).

The term IC50 denotes the concentration needed to halve the response being measured.

In the experiment the test system is KB1P organoids. Nature of the experiment: MTT measurement of KB1P organoid survival upon increasing doses of docetaxel. In kind it is cell-based. Particulars: Mus musculus, docetaxel for 72 h. As to the method:
Breast cancer organoids were derived from K14-Cre; Brca1fl/fl; p53fl/fl mouse mammary tumors (KB1P (Kester, L., et al. Clin Cancer Res, 2022.)) and from MMTV-PyMT (Duarte, A. A., et al. Nat Methods, 2018. 15(2): p. 134-140) mouse mammary tumors. Both lines were cultured in 50 μl drops of Cultrex PathClear Reduced Growth Factor Basement Membrane Extract Type 2 (BME, Amsbio, 3533-005-02). KB1P organoids were cultured in Advanced Dulbecco's modified Eagle's medium (adDMEM/F12; Thermo Fisher Scientific. Cat. No. 12634-010) containing Hepes (10 mmol/L; Thermo Fisher Scientific, Cat. No. 15630-056), Penicillin/streptomycin (10,000 U/ml; Thermo Fisher Scientific, Cat. No. 15140-122), B27 (2% Thermo Fisher Scientific, Cat. No. 17504-044), N-acetylcysteine (1.25 mM; Sigma-Aldrich, Cat. No. A9165) and fibroblast growth factor (FGF, 12 ng/ml; Invitrogen, Cat. No. PHG0261). MMTV-PyMT organoids were cultured in DMEM/F12 GlutaMAX (Gibco, Cat. No 10565018) supplemented with 10 mmol/L Hepes (Gibco, Cat. No 15630106), Penicillin/streptomycin (10,000 U/ml; Thermo Fisher Scientific, Cat. No. 15140-122), B27 (2% Thermo Fisher Scientific, Cat. No. 17504-044) and fibroblast growth factor (FGF, 12 ng/ml; Invitrogen, Cat. No. PHG0261). […]
Following co-culture, medium was removed, and cultures were washed in PBS to remove T cells. […] Plates were read with a 565 nm wavelength.

`CC(=O)O[C@@]12CO[C@@H]1C[C@H](O)[C@@]1(C)C(=O)[C@H](O)C3=C(C)[C@@H](OC(=O)[C@H](O)[C@@H](NC(=O)OC(C)(C)C)c4ccccc4)C[C@@](O)([C@@H](OC(=O)c4ccccc4)[C@H]21)C3(C)C` [docetaxel] showed an IC50 of 90.5 nM.
